Test results from US11707557B2, “Compositions and devices incorporating water-insoluble therapeutic agents and methods of the use thereof” (COOK MEDICAL TECHNOLOGIES LLC, priority 2014, dated 2023).
In brackets after ≈: the same amount, converted by molar mass. Each block holds one compound with its values, some of them ahead of it.

Experiments:
[1] = 24 h
[2] = Drug concentrations obtained using EGCG at 50 mg per ml (microscopic check for particulates); assay type: physicochemical
Experimental: EGCG at 50 mg/ml and drug at approximately 250 micrograms per ml were dissolved in the listed solvent and dried down in a test tube under nitrogen. 1 ml of water was added, followed by vortexing. The solutions were examined for particulate matter under a microscope. If no particulates were present, the process was repeated with a higher drug amount. All the tested drugs remained in solution at the listed concentrations except for nystatin and hesperidin.

[3] = physchem
[4] = Drug release from injectable PG:gallate pastes (60:40) into PBS; assay type: physicochemical; details: 60:40 PG:EGCG or PG:tannic acid, 2% w/w drug, PBS pH 7.4, 37° C.
Experimental: Methods: 60:40% w/w PG:EGCG or PG:tannic acid was used in these studies. 588 mg of propylene glycol was weighed into a 20 mL glass vials and 392 of EGCG or tannic acid was added followed by vortexing to distribute and dissolve the gallates. The vials were warmed to 60° C. and vortexed until all the contents were in solution. At this time 20 mg of drug was added (2% w/w) and vortexed until in solution. The following drugs were used: paclitaxel, docetaxel, retinoic acid, amphotericin B, and curcumin. 100 mg of each paste was weighed into the base of a 15 mL glass test tube and 10 mL of phosphate buffered saline was added at pH 7.4 and the tubes were incubated at 37° C. for certain times. All 10 mL of the PBS release media was removed and 1 mL analyzed by HPLC for drug content. 10 mL of fresh PBS was then added to all tubes

[5] = tested on: Caco2 cells; experiment: Uptake and transfer of amphoterecin B into Caco2 cells; assay type: in vitro ADME, human; details: 3 hours, versus ambisome
Experimental: Caco2 cells were seeded onto 0.3 um transwell membranes and treated as in Example 9. A solution of amphoterecin B (250 ug per ml) in EGCG (25 mg per ml), tannic acid (25 mg/ml) in Hanks buffer pH 7.4. or ambisome was added to the top well for 3 hours. The bottom reservoir was collected and treated as in Example 8.

[6] = Release of finasteride from PVA foam embolization particles and Embospheres; assay type: physicochemical
Experimental: Method: PVA foam embolization particles (Cook. Medical Bloomington Ind.) size 180-300 um. Vial of 220 mg split into two. 150 mg of EGCG with 10 mg of finasteride or 250 mg tannic acid with 1 mg of finasteride were dried as a common film from ethanol and solubilised in 1 ml of water and added to the 100 mg of PVA particles. Solutions were mixed for 30 minutes. At this time it was observed that all the EGCG or tannic acid color (pink or brown respectively) had disappeared from the solution and gone into the PVA which was now heavily colored. The solution was discarded and the PVA freeze dried. 10 mg of the EGCG formulation or 5 mg of the tannic acid formulation was added to 2 ml of PBS (pH 7.4) and the release of finasteride was measured over 2 weeks.
Embospheres: Syringe contents ((Embospheres 500-700 um Merit Medical S. Jordan Utah) were split into two and incubated in water solutions of finasteride (1 mg/ml in 35 mg of EGCG or tannic acid made up from dried films as above) for 30 minutes with shaking. At this time it was observed that all the EGCG or tannic acid color (pink or brown respectively) had disappeared from the solution and gone into the Embospheres which were no heavily colored. The solution was discarded. 20% of the resulting particles (still wet) were then placed in microcentrifuge tubes containing 2 ml of PBS and drug release was measured.

[7] = physchem; assay type: physicochemical; details: for solubility: thermodynamic from solid
Experimental: Method: Solutions of finasteride and either EGCG or tannic acid at various weight percentages in ethanol were dried down under nitrogen. Water was added and the dried material suspended/dissolved. […] The pH of tannic acid solutions was brought up to 7 by the addition of NAOH.

[8] = Release from PLGA microspheres +/- EGCG or tannic acid; assay type: physicochemical; details: for drug released: first 20 days
Experimental: Method: The method involved pipetting a solution of the polymer PLGA (usually 20% w/v) and drug (usually 5% w/w to polymer) and EGCG (e.g. 20% w/w/ to polymer) in dichlomethane (DCM) (5 ml) into 100 ml of 2.5% PVA solution in water stirring at 450 rpm. The suspension was left stirring for 2 hours and the microspheres washed 4 times in distilled water. The microspheres were then dried under vacuum for 2 days. Drug encapsulation was measured by dissolving a known weight of microspheres in 1 ml of dichloromethane followed by immediate dilution to 10 ml in 60:40 acetonitrile/water. The amount of drug or EGCG in the top and bottom phase of this solution was measured using HPLC methods (mobile phase 58:37:5 Acetonitrile:water:methanol. 1 ml per min flow on a c18 column with detection at 232 nm)
Tannic acid: An alternative method was used, termed a water-in oil-in water emulsion. […] This forms a primary emulsion of water droplets in the PLGA solution stabilized by Span. When this emulsion was pipetted into the PVA solution the microspheres formed well. […] The microspheres were a light brown in color indicative of tannic acid encapsulation.
Methods: In these studies, 10 mg of microspheres were suspended in 2 ml of phosphate buffered saline (pH 7.4 10 mM phosphate) in microcentrifuge tubes and tumbled at 8 rpm at 37° C. The tubes were then centrifuged at 12000×g and the supernatants collected for drug analysis by HPLC. 2 ml of fresh PBS was then placed on top of the microspheres which were returned to the 37° C. oven for continued incubation with tumbling.
At the end of the study the residual mass of polymer and drug was dissolved in DCM and drug extracted into 60:40 acetonitrile:water to measure residual drug. The amounts of residual drug were 89% for plga alone (at 31 days), 16% for EGCG and 8% for tannic acid (both at 51 days) as expressed as a % of the original loading.

[9] = Liquid pharmaceutical excipients in gallate based pastes (solubility, viscosity score, pellet in water); assay type: physicochemical
Excerpt: Various additional water/soluble/miscible liquids were explored (in addition to propylene glycol and polyethylene glycol) as excipients in gallate based pastes.
A viscosity score was established as follows: 1) Fluid—22 gauge needle; 2) Semi Viscous—18 gauge needle; 3) Viscous—16 gauge needle; 4) Waxy Pellet in water.

[10] = aqueous with cosolvent or surfactant or cyclodextrin, thermodynamic from solid, drug concentration solubilised at maximum EGCG concentration

stability of EGCG solutions of the drug [1]: stable for 24 hours | stability of tannic acid solutions of the drug [1]: stable for 24 hours | Visual appearance [2]: clear | Drug Concentration ([2]; 1 ml of water): 125 microgram/ml | Particulates present ([2]; under a microscope): no | solubility [3, 10]: ~1800 µg/mL (≈ 1.95 mM) | solubility ([3]; aqueous with cosolvent or surfactant or cyclodextrin, thermodynamic from solid, drug concentration solubilised at maximum tannic acid concentration): ~5700 µg/mL (≈ 6.17 mM) | solubility ([3]; water, free solubility in water): 1 to 10 µg/mL (≈ 0.00108 to 0.0108 mM) | drug uptake and transport through the cells ([5]; 250 ug per ml in EGCG 25 mg per ml): much higher levels | drug uptake and transport through the cells ([5]; 250 ug per ml in tannic acid 25 mg/ml): much higher levels
Compound: C[C@@H]1[C@H](O)[C@@H](C)/C=C/C=C/C=C/C=C/C=C/C=C/C=C/[C@H](O[C@@H]2O[C@H](C)[C@@H](O)[C@H](N)[C@@H]2O)C[C@@H]2O[C@](O)(C[C@@H](O)C[C@@H](O)[C@H](O)CC[C@@H](O)C[C@@H](O)CC(=O)O[C@H]1C)C[C@H](O)[C@H]2C(=O)O [amphotericin, amphotericin B]
drug release from PG:gallate paste [4]: relatively controlled release of the drug over 24 hours

Compound: CC(C)(C)NC(=O)[C@H]1CC[C@H]2[C@@H]3CC[C@H]4NC(=O)C=C[C@]4(C)[C@H]3CC[C@]12C [finasteride]
finasteride release ([6]; PVA incubated with tannic acid/finasteride solution, PBS, in 3 days): 100% | period of finasteride release ([6]; the other embolic particles (PVA with EGCG, Embospheres with EGCG or tannic acid)): over a two week period | stability of EGCG solutions of the drug [1]: stable for 24 hours | stability of tannic acid solutions of the drug [1]: stable for 24 hours | solubility [3, 10]: ~11000 µg/mL (≈ 29.5 mM) | solubility ([3]; pH 7, aqueous with cosolvent or surfactant or cyclodextrin, thermodynamic from solid, drug concentration solubilised at maximum tannic acid concentration): ~10000 µg/mL (≈ 26.8 mM) | stability of solutions ([7]; 24 h): stable over 24 hours | solubility ([7]; aqueous with cosolvent or surfactant or cyclodextrin): > 10000 µg/mL | solubility ([7]; pH 7, aqueous with cosolvent or surfactant or cyclodextrin): 8000 to 10000 µg/mL (≈ 21.5 to 26.8 mM) | solubility ([7]; water): 75 µg/mL (≈ 0.201 mM) | drug released ([8]; PLGA microspheres with EGCG): approx 80% | drug released ([8]; PLGA microspheres with tannic acid): approx 80% | encapsulated drug released ([8]; PLGA microspheres without EGCG or tannic acid, after 32 days): 7% | residual drug as % of the original loading ([8]; PLGA with EGCG, at 51 days): 16% | residual drug as % of the original loading ([8]; PLGA with tannic acid, at 51 days): 8% | residual drug as % of the original loading ([8]; plga alone, at 31 days): 89%

Solubility of EGCG in excipient [9]: 15% | Solubility of tannic acid in excipient [9]: 15%
Compound: Tween 80
